Patent publication US11028095B2, “Spiro-lactam and bis-spiro-lactam NMDA receptor modulators and uses thereof” (Aptinyx Inc., priority 2016, dated 2021)
Where two headings read alike, the source gives them in different places.

Key:
Plasma stability (Human) = format: in vitro ADME
Method: (§1) Plasma stability of disclosed compounds was investigated. The following table indicates the percent of compound remaining after 60 minutes.

[1] = Microsomal stability (Human); format: in vitro ADME; settings: human microsomes
Method: (§2) Microsomal stability of disclosed compounds was investigated. The following table indicates the percent of compound remaining after 60 minutes.

[2] = target: T1, NMDAR2A expressing HEK cell membranes (Homo sapiens, UniProt Q12879); experiment: NMDAR agonist assay, [3H]MK-801 binding, NMDAR2A; format: biochemical; settings: 50 μM glutamate; relative to 1 mM glycine
T1 construct: expressed in transfected cells; host or cells: HEK cells (membrane extract)
Method: (§3) (nonequilibrium conditions).
(§4) The baseline value was determined from the best fit curve of the DPM values modeled using the GraphPad program and the log(agonist) vs. response(three parameters) algorithm was then subtracted from all points in the dataset.

[3] = target: T2, NMDAR2A expressing HEK cell membranes (Homo sapiens, UniProt Q05586+Q12879); experiment: NMDAR agonist assay, [3H]MK-801 binding, NMDAR2A; format: biochemical; settings: for EC50: [3H]MK-801 binding; for Emax: relative to 1 mM glycine
T2 construct: expressed in transfected cells; host or cells: HEK cells (membrane extract)
Method: as §3, §4

[4] = Microsomal stability (Rat); format: in vitro ADME; settings: rat microsomes
Method: as §2

[5] = target: T3, NMDAR2B expressing HEK cell membranes (Homo sapiens, UniProt Q13224); experiment: NMDAR agonist assay, [3H]MK-801 binding, NMDAR2B; format: biochemical; settings: 50 μM glutamate; relative to 1 mM glycine
T3 construct: expressed in transfected cells; host or cells: HEK cells (membrane extract)
Method: as §3, §4

[6] = target: T4, NMDAR2B expressing HEK cell membranes (Homo sapiens, UniProt Q05586+Q13224); experiment: NMDAR agonist assay, [3H]MK-801 binding, NMDAR2B; format: biochemical; settings: for EC50: [3H]MK-801 binding; for Emax: relative to 1 mM glycine
T4 construct: expressed in transfected cells; host or cells: HEK cells (membrane extract)
Method: as §3, §4

[7] = tested on: positive (hedonic) 50-kHz ultrasonic vocalizations (USVs); experiment: Positive Emotional Learning (PEL) test; format: in vivo; settings: rat, PO, one hour after administration
Method: Experiments were conducted as described in Burgdorf et al., “The effect of selective breeding for differential rates of 50-kHz ultrasonic vocalizations on emotional behavior in rats,” Devel. […] Rat 50-kHz ultrasonic vocalization (hedonic USVs) is a validated model for the study of positive affective state and is best elicited by rough-and-tumble play.
The PEL assay measures the acquisition of positive (hedonic) 50-kHz ultrasonic vocalizations (USVs) to a social stimulus, heterospecific rough and tumble play stimulation. Heterospecific rough-and-tumble play stimulation was administered by the experimenter's right hand. One hour after administration of test compound or vehicle negative control (0.5% sodium carboxymethyl cellulose in 0.9% sterile saline vehicle), animals received 3 min of heterospecific rough-and-tumble play that consisted of alternating 15 sec blocks of heterospecific play and 15 sec of no-stimulation. […] Frequency modulated 50-kHz USVs that occurred during each of the no-stimulation periods were quantified to measure PEL. Animals were not habituated to play stimulation before testing. Positive emotional learning was measured during the conditioned stimulus (CS) trials preceding the tickle unconditioned stimulus (UCS) trials. Animals received 15 second trials consisting of 6 CS and 6 UCS trials each (3 min total).

Plasma stability (Rat) = format: in vitro ADME
Method: as §1

[8] = target: T5, NMDAR2C expressing HEK cell membranes (Homo sapiens, UniProt Q05586+Q14957); experiment: NMDAR agonist assay, [3H]MK-801 binding, NMDAR2C; format: biochemical; settings: for EC50: [3H]MK-801 binding
T5 construct: expressed in transfected cells; host or cells: HEK cells (membrane extract)
Method: as §3, §4

[9] = target: T6, NMDAR2D expressing HEK cell membranes (Homo sapiens, UniProt O15399+Q05586); experiment: NMDAR agonist assay, [3H]MK-801 binding, NMDAR2D; format: biochemical; settings: for Emax: read-out: NMDAR2D: % maximal [3H]MK-801 binding relative to 1 mM glycine; for EC50: [3H]MK-801 binding, read-out: NMDAR2D: log EC50 (converted)
T6 construct: expressed in transfected cells; host or cells: HEK cells (membrane extract)
Method: as §3, §4

IV pharmacokinetics = format: in vivo; settings: rat, in vivo, 2 mg/kg, Sprague Dawley rats, normal saline; for C0: read-out: C0; for Vd: read-out: Vss
Method: Sprague Dawley rats were dosed intravenously using a normal saline formulation containing 2 mg/kg of the compounds identified in the below table. The table below summarizes the results of the IV pharmacokinetics.

[10] = Oral pharmacokinetics (plasma, brain, CSF); format: in vivo; settings: Sprague Dawley rats, per os, 10 mg/kg; for AUC(0-t) / Tmax / Cmax / bioavailability: rat, plasma, po; for Tmax: normal saline, read-out: Tmax; for Cmax: read-out: Cmax
Method: In another experiment, Sprague Dawley rats were dosed per os using a normal saline formulation containing 10 mg/kg of the compounds identified in the table below. Plasma, brain, and CSF samples were analyzed at various time points over a 24 hour period. The table below summarizes the results of the oral pharmacokinetics.

[11] = NMDAR2A: log EC50, 50 μM glutamate
[12] = NMDAR2B: log EC50, 50 μM glutamate
[13] = read-out: NMDAR2C: % maximal [3H]MK-801 binding relative to 1 mM glycine
[14] = 50 μM glutamate, read-out: NMDAR2A: log EC50 (converted)
[15] = 50 μM glutamate, read-out: NMDAR2B log EC50 (converted)
[16] = 50 μM glutamate, read-out: NMDAR2B: % maximal [3H]MK-801 binding relative to 1 mM glycine
[17] = 50 μM glutamate, relative to 1 mM glycine, read-out: NMDAR2C A: % maximal [3H]MK-801 binding relative to 1 mM glycine
[18] = 50 μM glutamate, relative to 1 mM glycine
[19] = 50 μM glutamate, read-out: NMDAR2C: log EC50 (converted)

T1 sequence (Q12879 23-1464, other chains not shown): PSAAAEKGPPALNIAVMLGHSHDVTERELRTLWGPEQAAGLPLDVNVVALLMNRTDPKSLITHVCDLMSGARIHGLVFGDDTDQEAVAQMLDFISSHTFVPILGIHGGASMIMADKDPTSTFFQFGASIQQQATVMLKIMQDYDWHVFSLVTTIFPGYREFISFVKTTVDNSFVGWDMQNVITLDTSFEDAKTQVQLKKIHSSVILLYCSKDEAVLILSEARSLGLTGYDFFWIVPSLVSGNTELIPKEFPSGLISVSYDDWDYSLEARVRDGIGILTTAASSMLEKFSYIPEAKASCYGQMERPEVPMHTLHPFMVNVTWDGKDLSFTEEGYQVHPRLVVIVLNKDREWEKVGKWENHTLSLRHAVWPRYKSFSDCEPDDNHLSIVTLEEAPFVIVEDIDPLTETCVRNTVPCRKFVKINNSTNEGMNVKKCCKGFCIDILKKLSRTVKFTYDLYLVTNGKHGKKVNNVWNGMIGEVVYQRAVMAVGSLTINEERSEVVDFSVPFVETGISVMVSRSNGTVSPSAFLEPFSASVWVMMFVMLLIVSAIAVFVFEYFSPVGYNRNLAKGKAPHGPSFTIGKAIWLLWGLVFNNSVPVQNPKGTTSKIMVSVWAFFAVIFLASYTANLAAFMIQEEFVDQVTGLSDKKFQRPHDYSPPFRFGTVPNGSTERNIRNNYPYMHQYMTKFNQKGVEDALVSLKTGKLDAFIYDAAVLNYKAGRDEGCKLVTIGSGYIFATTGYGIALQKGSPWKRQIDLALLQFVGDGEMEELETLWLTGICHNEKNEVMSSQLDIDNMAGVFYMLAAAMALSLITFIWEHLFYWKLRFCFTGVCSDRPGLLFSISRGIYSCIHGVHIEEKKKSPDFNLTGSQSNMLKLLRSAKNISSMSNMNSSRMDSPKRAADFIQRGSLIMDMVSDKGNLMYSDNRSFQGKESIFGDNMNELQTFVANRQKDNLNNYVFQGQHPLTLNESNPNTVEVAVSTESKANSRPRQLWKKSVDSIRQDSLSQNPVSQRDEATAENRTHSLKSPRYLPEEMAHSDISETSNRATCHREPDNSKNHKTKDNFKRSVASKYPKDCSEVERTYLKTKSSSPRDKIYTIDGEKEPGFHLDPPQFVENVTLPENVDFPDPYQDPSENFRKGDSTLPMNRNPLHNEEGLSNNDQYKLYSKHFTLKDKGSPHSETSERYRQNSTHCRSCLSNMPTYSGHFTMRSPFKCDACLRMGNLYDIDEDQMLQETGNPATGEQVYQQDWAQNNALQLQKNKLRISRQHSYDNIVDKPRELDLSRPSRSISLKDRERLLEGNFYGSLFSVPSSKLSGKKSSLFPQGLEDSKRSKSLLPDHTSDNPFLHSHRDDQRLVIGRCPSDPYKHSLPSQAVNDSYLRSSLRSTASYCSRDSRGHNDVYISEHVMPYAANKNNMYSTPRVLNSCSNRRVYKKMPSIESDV
T2 sequence (Q12879 23-1464, other chains not shown): as above
T5 sequence (Q14957 20-1233, other chains not shown): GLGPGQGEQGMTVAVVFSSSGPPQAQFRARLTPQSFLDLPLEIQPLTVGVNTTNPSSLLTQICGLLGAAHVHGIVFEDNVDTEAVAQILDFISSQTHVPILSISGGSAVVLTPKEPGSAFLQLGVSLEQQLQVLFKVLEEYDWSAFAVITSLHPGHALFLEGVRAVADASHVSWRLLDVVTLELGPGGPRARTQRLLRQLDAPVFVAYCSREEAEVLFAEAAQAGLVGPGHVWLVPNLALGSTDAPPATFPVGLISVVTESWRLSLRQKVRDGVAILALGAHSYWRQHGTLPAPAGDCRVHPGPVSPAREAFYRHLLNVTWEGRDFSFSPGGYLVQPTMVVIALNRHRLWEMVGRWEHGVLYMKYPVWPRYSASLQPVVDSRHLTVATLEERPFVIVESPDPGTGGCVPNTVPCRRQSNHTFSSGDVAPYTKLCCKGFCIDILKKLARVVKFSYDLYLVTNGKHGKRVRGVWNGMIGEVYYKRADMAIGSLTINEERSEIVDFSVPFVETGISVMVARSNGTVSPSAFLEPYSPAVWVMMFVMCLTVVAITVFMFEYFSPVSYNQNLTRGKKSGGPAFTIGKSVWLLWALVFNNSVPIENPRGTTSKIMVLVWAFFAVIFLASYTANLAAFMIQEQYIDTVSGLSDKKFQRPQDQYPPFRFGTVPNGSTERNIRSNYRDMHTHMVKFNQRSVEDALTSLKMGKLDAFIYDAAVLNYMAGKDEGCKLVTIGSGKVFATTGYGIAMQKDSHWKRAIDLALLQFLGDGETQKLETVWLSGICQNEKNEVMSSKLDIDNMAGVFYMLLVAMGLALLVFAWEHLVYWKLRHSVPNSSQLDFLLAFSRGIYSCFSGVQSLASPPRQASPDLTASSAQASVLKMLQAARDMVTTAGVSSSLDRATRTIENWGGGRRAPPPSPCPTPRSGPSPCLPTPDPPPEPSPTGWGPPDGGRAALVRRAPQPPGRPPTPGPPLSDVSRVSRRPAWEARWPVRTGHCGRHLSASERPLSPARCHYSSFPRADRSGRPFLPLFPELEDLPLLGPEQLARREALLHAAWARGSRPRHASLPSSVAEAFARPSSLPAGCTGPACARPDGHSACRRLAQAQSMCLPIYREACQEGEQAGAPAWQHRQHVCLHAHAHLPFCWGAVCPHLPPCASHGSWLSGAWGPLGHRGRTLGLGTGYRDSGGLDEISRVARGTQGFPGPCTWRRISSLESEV

SMILES	Plasma (Human): percent of compound remaining after 60 minutes (Plasma stability (Human)) [%]	Microsomal (Human): percent of compound remaining after 60 minutes [1] [%]	NMDAR2A: % maximal [3H]MK-801 binding relative to 1 mM glycine [2]	Microsomal (Rat): percent of compound remaining after 60 minutes [4] [%]	NMDAR2B: % maximal [3H]MK-801 binding relative to 1 mM glycine [5]	Plasma (Rat): percent of compound remaining after 60 minutes (Plasma stability (Rat)) [%]	AUC(0-t) (IV pharmacokinetics; Sprague Dawley, iv) [ng·h/mL]	clearance (IV pharmacokinetics; Sprague Dawley, iv) [mL/min/kg]	half-life (IV pharmacokinetics; Sprague Dawley, iv) [min]	C0 (IV pharmacokinetics; Sprague Dawley, iv) [ng/mL]	Vd (IV pharmacokinetics; Sprague Dawley, iv) [L/kg]	CSF Cmax [10] [ng/mL]	Brain Cmax [10] [ng/mL]	AUC(0-t) ([10]; Sprague Dawley) [ng·h/mL]	Tmax ([10]; Sprague Dawley) [min]	Cmax ([10]; Sprague Dawley) [ng/mL]	EC50 [3, 14] [nM]	EC50 [6, 15] [nM]	Emax [8, 17] [%]	EC50 ([9]; 50 μM glutamate) [nM]	also measured
CN1C2(CCC13CNC3=O)CNC2=O (single isomer, unassigned) [AB-2, 5-methyl-2,5,8-triazadispiro[3.1.36.24]undecane-1,7-dione]	86	72	− (−=0)	78	+ (<100%=+)	83	–	–	–	–	–	–	–	–	–	–	–	–	–	–	EC50 [3, 11]: > 100 nM; EC50 [6, 12]: < 1 nM; Max Effect (mean number of 50 kHz USVs per 15 seconds) ([7]; dose 0.001-1 mg/kg): ** (**: 11-16.9); EC50 ([8]; NMDAR2C: log EC50, 50 μM glutamate): < 1 nM; Emax [8, 13]: < 100%; Emax [9]: < 100%
C[C@@H](O)[C@H](NC(=O)C1CCC2(CNC2=O)N1)C(N)=O (single isomer, unassigned) [AQ-1]	100	100	–	84	–	100	3330	9.84	21.6	6820	0.28	0	0	350	49.8	133	< 1	< 1	< 100	< 1	% F [10]: 2%; Emax ([3]; 50 μM glutamate, read-out: NMDAR2A: % maximal [3H]MK-801 binding relative to 1 mM glycine): < 100%; Emax [6, 16]: < 100%; Max Effect (mean number of 50 kHz USVs per 15 seconds) ([7]; dose 0.1 mg/kg, 0.1 mg/kg): ** (**: 11-16.9); Emax [9, 18]: < 100%
CC(C)(C)OC(=O)N1CC2(CN(OCc3ccccc3)C2=O)CC12CN(OCc1ccccc1)C2=O (single isomer, unassigned) [AW, tert-butyl 2,8-bis(benzyloxy)-1,7-dioxo-2,8,10-triazadispiro[3.1.36.24]undecane-10-carboxylate]	90	2	+ (<100%=+)	0	++ (>100%=++)	0	–	–	–	–	–	–	–	–	–	–	< 1	–	< 100	< 1	Max Effect (mean number of 50 kHz USVs per 15 seconds) ([7]; dose 0.1 mg/kg): ** (**: 11-16.9); EC50 [8, 19]: < 1 nM; Emax [9, 18]: < 100%
CC(C)(C)OC(=O)N1C(C(N)=O)CCC12CN(OCc1ccccc1)C2=O (single isomer, unassigned) [BH, tert-butyl 2-(benzyloxy)-6-carbamoyl-1-oxo-2,5-diazaspiro[3.4]octane-5-carboxylate]	90	100	− (−=0)	100	+ (<100%=+)	95	656	50.5	20.4	2390	0.82	36.66	0	614	15	859	> 100	< 1	> 100	–	bioavailability ([10]; Sprague Dawley): 18%; Max Effect (mean number of 50 kHz USVs per 15 seconds) ([7]; dose 0.1 mg/kg): ** (**: 11-16.9); EC50 [8, 19]: < 1 nM
C[C@@H](O)[C@@H](C(N)=O)N1CC2(CCC3(CN([C@H](C(N)=O)[C@@H](C)O)C3=O)N2C(=O)OC(C)(C)C)C1=O (stereo partly drawn) [BY, tert-butyl 2,8-bis((2S,3R)-1-amino-3-hydroxy-1-oxobutan-2-yl)-1,7-dioxo-2,5,8-triazadispiro[3.1.36.24]undecane-5-carboxylate]	81	100	–	81	–	82	5960	5.6	38.4	10200	0.15	0	0	486	49.8	156	> 100	< 1	< 100	> 100	bioavailability ([10]; Sprague Dawley): 2%; Emax [6, 16]: > 100%; Max Effect (mean number of 50 kHz USVs per 15 seconds) ([7]; dose 0.1 mg/kg): ** (**: 11-16.9); EC50 [8, 19]: < 1 nM; Emax [9, 18]: 0%
CC(C)CN1[C@]2(CC[C@]13CNC3=O)CNC2=O [Compound AF, 5-isobutyl-2,5,8-triazadispiro[3.1.36.24]undecane-1,7-dione]	99	92	–	87	–	90	–	–	–	–	–	2781	1313.8	–	–	–	–	–	–	–	AUC(0-t) (IV pharmacokinetics): 6450 ng·h/mL; clearance (IV pharmacokinetics): 5.2 mL/min/kg; half-life (IV pharmacokinetics): 299 min; C0 (IV pharmacokinetics): 3900 ng/mL; Vd (IV pharmacokinetics): 0.59 L/kg; AUC(0-t) [10]: 16100 ng·h/mL; bioavailability [10]: 82%; Tmax [10]: 25.2 min; Cmax [10]: 7250 ng/mL; EC50 [3, 11]: < 1 nM; Emax ([3]; read-out: NMDAR2A: % maximal [3H]MK-801 binding relative to 1 mM glycine, 50 μM glutamate): < 100%; EC50 [6, 12]: < 1 nM; Emax ([6]; read-out: NMDAR2B: % maximal [3H]MK-801 binding relative to 1 mM glycine, 50 μM glutamate): < 100%; Max Effect (mean number of 50 kHz USVs per 15 seconds) ([7]; dose 0.001-1 mg/kg): ** (**: 11-16.9); Emax [8, 13]: > 100%; Emax [9]: < 100%
